Measurements: US9096565B2, “Inhibitors of histone deacetylase” (MethylGene Inc., priority 2007, dated 2015)

Target: one or more of HDAC-4, HDAC-5, HDAC-6, HDAC-7, HDAC-8, HDAC-9, HDAC-10 and HDAC-11
Assay: Inhibition of histone deacetylase enzymatic activity (summary statement over isoforms)
Format: biochemical
Conditions: Table 3, selected examples; HDAC isoform not given
Method in brief: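 Activity was measured as deacetylation of the fluorogenic substrate Boc-Lys(trifluoroacetyl)-AMC over 20-30 min at 37 °C, after a 5 min room-temperature preincubation of enzyme with compound. Trypsin (1 mg/mL) with a reference HDAC inhibitor ended the reaction.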

| IC50 [µM] | SMILES |
| --- | --- |
| < 1 | O=C(NO)C(Sc1nc2cccnc2s1)c1ccccc1 (stereo not shown) [Compound 5-46, N-hydroxy-2-phenyl-2-(thiazolo[5,4-b]pyridin-2-ylthio)acetamide] |
| < 1 | O=C(NO)C(c1ccccc1)N1CCN(c2ccc(C(F)(F)F)cn2)CC1 (stereo not shown) [Compound 5-48, N-hydroxy-2-phenyl-2-(4-(5-(trifluoromethyl)pyridin-2-yl)piperazin-1-yl)acetamide] |
| < 1 | O=C(NO)C(c1ccccc1)c1ccc(-c2ccc(F)c(F)c2)cc1 (stereo not shown) [Compound 5-49, 2-(3′,4′-difluorobiphenyl-4-yl)-N-hydroxy-2-phenylacetamide] |
| < 1 | COc1ccc2sc(SC(C(=O)NO)c3ccccc3)nc2c1 (stereo not shown) [Compound 5-50, N-hydroxy-2-(5-methoxybenzo[d]thiazol-2-ylthio)-2-phenylacetamide] |
| < 1 | O=C(NO)C(c1ccccc1)c1ccc(N2CCC(Cc3ccccc3)CC2)cc1 (stereo not shown) [Compound 5-51, 2-(4-(4-benzylpiperidin-1-yl)phenyl)-N-hydroxy-2-phenylacetamide] |
| < 1 | O=C(NO)C(c1ccccc1)c1nnc(-c2ccccc2Oc2ccccc2)s1 (stereo not shown) [Compound 5-52, N-hydroxy-2-(5-(2-phenoxyphenyl)-1,3,4-thiadiazol-2-yl)-2-phenylacetamide] |
| < 1 | O=C(NO)C(c1ccccc1)c1nnc(COc2ccccc2)s1 (stereo not shown) [Compound 5-53, N-hydroxy-2-(5-(phenoxymethyl)-1,3,4-thiadiazol-2-yl)-2-phenylacetamide] |
| 1 to 15 | O=C(NO)C(c1ccccc1)c1nnc(-c2ccc3ccccc3c2)s1 (stereo not shown) [Compound 5-54, N-hydroxy-2-(5-(naphthalen-2-yl)-1,3,4-thiadiazol-2-yl)-2-phenylacetamide] |
| < 1 | O=C(NO)C(c1ccccc1)c1nnc(-c2ccc3[nH]ccc3c2)s1 (stereo not shown) [Compound 5-55, 2-(5-(1H-indol-5-yl)-1,3,4-thiadiazol-2-yl)-N-hydroxy-2-phenylacetamide] |
| < 1 | O=C(NO)C1c2ccccc2N(Cc2ccccc2)c2ccccc21 [Compound 5-56, 10-benzyl-N-hydroxy-9,10-dihydroacridine-9-carboxamide] |
| 1 to 15 | O=C(NO)C(c1ccccc1)N1CCN(c2ccc(F)cc2)CC1 (stereo not shown) [Compound 5-57, 2-(4-(4-fluorophenyl)piperazin-1-yl)-N-hydroxy-2-phenylacetamide] |
| < 1 | CN(C)c1ccc(-c2ccc(C(C(=O)NO)c3ccccc3)cc2)cn1 (stereo not shown) [Compound 5-58, 2-(4-(6-(dimethylamino)pyridin-3-yl)phenyl)-N-hydroxy-2-phenylacetamide] |
| < 1 | O=C(NO)C(Sc1nc2cc(Cl)ccc2s1)c1ccccc1 (stereo not shown) [Compound 5-59, 2-(5-chlorobenzo[d]thiazol-2-ylthio)-N-hydroxy-2-phenylacetamide] |
| 1 to 15 | O=C(NO)C(c1ccccc1)N1CCN(C(=O)OCc2ccccc2)CC1 (stereo not shown) [Compound 5-61, benzyl 4-(2-(hydroxyamino)-2-oxo-1-phenylethyl)piperazine-1-carboxylate] |
| < 1 | O=C(NO)C(c1ccccc1)N1CCC(c2ccc(F)cc2)CC1 (stereo not shown) [Compound 5-62, 2-(4-(4-fluorophenyl)piperidin-1-yl)-N-hydroxy-2-phenylacetamide] |
| < 1 | O=C(NO)C(c1ccccc1)c1ccc(C#Cc2cccnc2)cc1 (stereo not shown) [Compound 5-63, N-hydroxy-2-phenyl-2-(4-(pyridin-3-ylethynyl)phenyl)acetamide] |
| < 1 | O=C(NO)C(c1ccccc1)c1nnc(C2c3ccccc3Oc3ccccc32)s1 (stereo not shown) [Compound 5-64, 2-(5-(9H-xanthen-9-yl)-1,3,4-thiadiazol-2-yl)-N-hydroxy-2-phenylacetamide] |
| < 1 | O=C(NO)C(c1ccccc1)c1ccc(N2CCN(Cc3ccccc3)CC2)cc1 (stereo not shown) [Compound 5-65, 2-(4-(4-benzylpiperazin-1-yl)phenyl)-N-hydroxy-2-phenylacetamide] |
| < 1 | O=C(NO)C(c1ccccc1)c1ccc(N2CCN(c3ccccn3)CC2)cc1 (stereo not shown) [Compound 5-66, N-hydroxy-2-phenyl-2-(4-(4-(pyridin-2-yl)piperazin-1-yl)phenyl)acetamide] |
| < 1 | O=C(NO)C(c1ccccc1)c1ccc(N2CCN(c3cccc(C(F)(F)F)c3)CC2)cc1 (stereo not shown) [Compound 5-67, N-hydroxy-2-phenyl-2-(4-(4-(3-(trifluoromethyl)phenyl)piperazin-1-yl)phenyl)acetamide] |
| < 1 | O=C(NO)C(c1ccccc1)c1ccc(CCCCc2ccccc2)cc1 (stereo not shown) [Compound 5-68, N-hydroxy-2-phenyl-2-(4-(4-phenylbutyl)phenyl)acetamide] |
| < 1 | O=C(NO)C(c1ccc(N2CCCC2)cc1)c1ccc2c(c1)CCO2 (stereo not shown) [Compound 5-69, 2-(2,3-dihydrobenzofuran-5-yl)-N-hydroxy-2-(4-(pyrrolidin-1-yl)phenyl)acetamide] |

| IC50 [µM] | SMILES |
| --- | --- |
| < 1 | O=C(NO)C(c1ccccc1)c1ccc(N2CCCCC2)cc1 (stereo not shown) [Compound 5-70, N-hydroxy-2-phenyl-2-(4-(piperidin-1-yl)phenyl)acetamide] |
| < 1 | O=C(NO)C(c1ccccc1)c1ccc(-n2cccn2)cc1 (stereo not shown) [Compound 5-72, 2-(4-(1H-pyrazol-1-yl)phenyl)-N-hydroxy-2-phenylacetamide] |
| < 1 | O=C(NO)C(c1ccccc1)N1CCN(c2ccccn2)CC1 (stereo not shown) [Compound 5-73, N-hydroxy-2-phenyl-2-(4-(pyridin-2-yl)piperazin-1-yl)acetamide] |
| < 1 | O=C(NO)C(c1ccccc1)c1ccc(-c2ncccc2F)cc1 (stereo not shown) [Compound 5-74, 2-(4-(3-fluoropyridin-2-yl)phenyl)-N-hydroxy-2-phenylacetamide] |
| < 1 | O=C(NO)C(c1ccccc1)c1ccc(N2CCN(C(=O)OCc3ccccc3)CC2)cc1 (stereo not shown) [Compound 5-75, benzyl 4-(4-(2-(hydroxyamino)-2-oxo-1-phenylethyl)phenyl)piperazine-1-carboxylate] |
| < 1 | O=C(NO)C(c1ccccc1)c1ccc(N2CCN(Cc3ccc4c(c3)OCO4)CC2)cc1 (stereo not shown) [Compound 5-76, 2-(4-(4-(benzo[d][1,3]dioxol-5-ylmethyl)piperazin-1-yl)phenyl)-N-hydroxy-2-phenylacetamide] |
| < 1 | O=C(NO)C(c1ccccc1)c1ccc(N2CCN(C3CCCC3)CC2)cc1 (stereo not shown) [Compound 5-77, 2-(4-(4-cyclopentylpiperazin-1-yl)phenyl)-N-hydroxy-2-phenylacetamide] |
| < 1 | O=C(NO)C(c1ccccc1)c1ccc(N2C[C@@H]3C[C@H]2CO3)cc1 (stereo partly drawn) [Compound 5-78, 2-(4-((1S,4S)-2-oxa-5-azabicyclo[2.2.1]heptan-5-yl)phenyl)-N-hydroxy-2-phenylacetamide] |
| < 1 | Cn1cncc1C#Cc1ccc(C(C(=O)NO)c2ccccc2)cc1 (stereo not shown) [Compound 5-79, N-hydroxy-2-(4-((1-methyl-1H-imidazol-5-yl)ethynyl)phenyl)-2-phenylacetamide] |
| < 1 | Cc1cc(C)nc(N2CCN(C(C(=O)NO)c3ccccc3)CC2)n1 (stereo not shown) [Compound 5-80, 2-(4-(4,6-dimethylpyrimidin-2-yl)piperazin-1-yl)-N-hydroxy-2-phenylacetamide] |
| < 1 | O=C(NO)C(c1ccccc1)c1ccc(-n2ccc3ccccc32)cc1 (stereo not shown) [Compound 5-81, 2-(4-(1H-indol-1-yl)phenyl)-N-hydroxy-2-phenylacetamide] |
| < 1 | CCN(CC)c1ccc(C(C(=O)NO)c2ccc3c(c2)CCO3)cc1 (stereo not shown) [Compound 5-82, 2-(4-(diethylamino)phenyl)-2-(2,3-dihydrobenzofuran-5-yl)-N-hydroxyacetamide] |
| < 1 | CN1CCN(c2ccc(C(C(=O)NO)c3ccccc3)cc2)CC1 (stereo not shown) [Compound 5-83, N-hydroxy-2-(4-(4-methylpiperazin-1-yl)phenyl)-2-phenylacetamide] |
| < 1 | COc1ccc(N2CCN(c3ccc(C(C(=O)NO)c4ccccc4)cc3)CC2)cc1 (stereo not shown) [Compound 5-84, N-hydroxy-2-(4-(4-(4-methoxyphenyl)piperazin-1-yl)phenyl)-2-phenylacetamide] |
| < 1 | O=C(NO)C(c1ccccc1)c1ccc(N2CCN(C/C=C/c3ccccc3)CC2)cc1 (stereo not shown) [Compound 5-85, (E)-2-(4-(4-cinnamylpiperazin-1-yl)phenyl)-N-hydroxy-2-phenylacetamide] |
| 1 to 15 | O=C(NO)C(c1ccccc1)N1CCN(S(=O)(=O)Cc2ccccc2)CC1 (stereo not shown) [Compound 5-87, 2-(4-(benzylsulfonyl)piperazin-1-yl)-N-hydroxy-2-phenylacetamide] |
| < 1 | O=C(NO)C(c1ccccc1)c1ccc(-n2ccnc2)cc1 (stereo not shown) [Compound 5-88, 2-(4-(1H-imidazol-1-yl)phenyl)-N-hydroxy-2-phenylacetamide] |
| < 1 | O=C(NO)C(c1ccc(F)cc1)c1cccc(-c2ccccc2)c1 (stereo not shown) [Compound 5-89, 2-(biphenyl-3-yl)-2-(4-fluorophenyl)-N-hydroxyacetamide] |
| < 1 | O=C(NO)C(c1ccc(F)cc1)c1ccc(N2CCOCC2)cc1 (stereo not shown) [Compound 5-90, 2-(4-fluorophenyl)-N-hydroxy-2-(4-morpholinophenyl)acetamide] |
| < 1 | O=C(NO)C(c1ccccc1)c1ccc(C#CCN2CCS(=O)(=O)CC2)cc1 (stereo not shown) [Compound 5-91] |
| < 1 | COc1ncc(-c2ccc(C(C(=O)NO)c3ccccc3)cc2)cn1 (stereo not shown) [Compound 5-92, N-hydroxy-2-(4-(2-methoxypyrimidin-5-yl)phenyl)-2-phenylacetamide] |
| < 1 | CC(C)N1CCN(c2ccc(C(C(=O)NO)c3ccccc3)cc2)CC1 (stereo not shown) [Compound 5-93, N-hydroxy-2-(4-(4-isopropylpiperazin-1-yl)phenyl)-2-phenylacetamide] |

| SMILES | IC50 [µM] |
| --- | --- |
| O=C(NO)C(c1ccccc1)N1C[C@@H]2C[C@H]1CO2 (stereo partly drawn) [Compound 5-71, 2-((1S,4S)-2-oxa-5-azabicyclo[2.2.1]heptan-5-yl)-N-hydroxy-2-phenylacetamide] | 1 to 15 |
| O=C(NO)C(c1ccccc1)c1ccc(N2CCNCC2)cc1 (stereo not shown) [Compound 5-86, N-hydroxy-2-phenyl-2-(4-(piperazin-1-yl)phenyl)acetamide] | < 1 |
